Results taken from patent publication US20260263497A1, “METHOD OF TREATING SCHIZOPHRENIA AND COMPOSITION FOR USE THEREIN” (Academia Sinica, priority 2022, published 2026).

How the values were obtained:
Format in all cases: in vivo, mice (C57BL/6)
[1] = test system: METH-induced hyperlocomotion in METH-naïve wild-type mice; assay: METH-induced hyperlocomotor activity (METH-induced behavioral sensitization, open field); details: for effect on METH-induced hyperlocomotion activity, total travelled distance: i.p. co-injection 0.3, 1, 3 mg/kg with METH 2 mg/kg, 60 minutes, FIG. 2
Protocol: (§1) Animals: Male mice (C57BL/6; 2-3 months) were purchased from and maintained in the animal facility of National Taiwan University (Taipei, Taiwan) under standard condition with a 12-hr light/12-hr dark cycle. All animal experimental procedures were performed in accordance with the guidelines established by the Institutional Animal Care and Use Committee (IACUC) of the National Taiwan University and Institute of Biomedical Sciences (IBMS) at Academia Sinica (Taipei, Taiwan).
(§2) The locomotor activity: The locomotor activity was monitored and recorded using SMART 3.0 video tracking software (Panlab Harvard Apparatus, Barcelona, Spain) for 1 hour following the manufacture's protocol.
Methamphetamine (METH) is a dopamine enhancer that elevates synaptic dopamine in the brain and is frequently used to induce schizophrenia-like behaviors in mice.^6 Thus, METH-induced psychosis mice was used to evaluate the in vivo efficacy of JMF3464.
Male METH-naïve wild-type (WT) mice (3-6 months old) received intraperitoneal co-injections of JMF3464 (0.3, 1, or 3 mg/kg) and METH (2 mg/kg) immediately after establishing a 20-minute baseline for locomotor activity. The locomotor activity was recorded for 60 minutes after injection. A saline+vehicle group and a METH+vehicle group are used as control groups. In addition, under the same experimental conditions as JMF3464, the compound CGS21680 (A2A receptor agonist) with potential for treating schizophrenia was used as a comparison. The resulted data was expressed and analyzed as one-way ANOVA of total travelled distance (see FIG. 2) and two-way ANOVA of distance by 5-minute time bin (see FIGS. 3A and 3B) and.
as §1, with “IACUC” for “Institutional Animal Care and Use Committee (IACUC)”, “IBMS” for “Institute of Biomedical Sciences (IBMS)”
Male METH-naïve wild-type (WT) mice (3-6 months old) received intraperitoneal co-injections of JMF1907 (1 mg/kg) and METH (2 mg/kg) immediately after establishing a 20-minute baseline for locomotor activity. The locomotor activity was recorded for 60 minutes after injection. In this study, a saline+vehicle (5% DMSO) group and a METH+vehicle (5% DMSO) group are used as control groups. In addition, the compound JMF3464 described above, and the compound S-(4-Nitrobenzyl)-6-thioinosine (NBTI), known as an inhibitor of equilibrative nucleoside transporter 1 (ENTi) transporter, are used as comparative examples with the same experimental conditions as JMF1907. The resulted data was expressed and analyzed as one-way ANOVA of total travelled distance (see FIG. 5) and two-way ANOVA of distance by 5-minute time bin (see FIG. 6).

[2] = test system: locomotor activity of drug-naïve WT mice; assay: Effect of JMF3464 alone on locomotor activity; details: single i.p. injection 0.3, 0.5, 1, 3 mg/kg
Protocol: as §1, §2
Male drug-naïve WT mice (3-6 months old) received a single dose JMF3464 injection (0.3, 0.5, 1, and 3 mg/kg, respectively) via intraperitoneal injection and the locomotor activity was recorded immediately after injection. A vehicle group is used as control group. The data were expressed and analyzed as one-way ANOVA of total travelled distance for 60 minutes (see FIG. 1A) and two-way ANOVA of distance by 5-minute time bin (see FIG. 1B).

METH-induced CPP in mice = assay: METH-induced conditioned place preference (CPP)
Protocol: as §1
The METH-induced conditioned place preference (CPP) task is further performed to examine the therapeutic effect of JMF3464 on METH-induced addiction.
The METH-induced CPP procedure is shown as follows. The conditioned place preference (CPP) paradigm is a standard preclinical behavioral model used to study the rewarding and aversive effects of drugs. The paradigm usually uses a two-compartment apparatus with each compartment displaying distinct contextual characteristics (e.g., wall colors/patterns and floor texture). The CPP model consisted of three phases: pre-conditioning (baseline), conditioning, and post-conditioning (i.e., CPP test). […] Lastly, one day after the conditioning sessions, mice underwent a CPP test where they were again given free access to all compartments for 15 minutes and the time spent in the METH-paired side was measured, which provided a measure of CPP expression.

SMILES: CCNC(=O)[C@H]1O[C@@H](n2cnc3c(N)nc(NCCc4ccc(CCC(=O)O)cc4)nc32)[C@H](O)[C@@H]1O [CGS21680, reference compound]
- effect on METH-induced hyperlocomotion activity, total travelled distance [1]: dose-dependently suppressed

SMILES: OC[C@H]1O[C@@H](n2cnc3c(NCCc4c[nH]c5ccccc45)ncnc32)C(O)C1O (some centres unmarked) [JMF1907]
- improvement of METH-induced hyperactive behavior, five-minute intervals ([1]; 1 mg/kg i.p. co-injection with METH 2 mg/kg, open field 60 minutes, FIG. 6): comparable to the control group
- effect on METH-induced hyperactive behavior, overall locomotion ([1]; 1 mg/kg i.p. co-injection with METH 2 mg/kg, open field 60 minutes, vehicle 5% DMSO, compared to JMF3464 and NBTI, FIG. 5): significantly improves

SMILES: OC[C@H]1O[C@@H](n2cnc3c(NCc4ccc(Br)s4)ncnc32)[C@H](O)[C@@H]1O [JMF3464, N6-[(5-bromothien-2-yl)methyl]adenosine]
- effect on locomotor activity ([2]; 60 minutes): dose-dependent effect
- reduction of total locomotor activity ([2]; total travelled distance 60 minutes, vs vehicle): ~ 20%
- effect on METH-induced locomotion activity, 5-minute time bins ([1]; 3 mg/kg i.p. co-injection with METH 2 mg/kg, vs METH+vehicle, FIGS. 3A, 3B): significantly lowered
- effect on METH-induced hyperlocomotion activity, total travelled distance [1]: dose-dependently suppressed
- effect on METH-induced behavioral sensitization after repeated use ([1]; repeated use, no further conditions given): no effect
- inhibitory effect on METH-induced CPP (METH-induced CPP in mice; 1 mg/kg i.p. 10 minutes before each METH conditioning session, FIG. 4A): neither 1 mg/kg nor 3 mg/kg of JMF3464 exerted inhibitory effect
- inhibitory effect on METH-induced CPP (METH-induced CPP in mice; 3 mg/kg i.p. 10 minutes before each METH conditioning session, FIG. 4B): neither 1 mg/kg nor 3 mg/kg of JMF3464 exerted inhibitory effect

SMILES: CN[C@@H](C)Cc1ccccc1 [METH, Methamphetamine]
- hyperlocomotion induced by METH ([1]; METH 2 mg/kg i.p. + vehicle vs saline+vehicle, total travelled distance 60 minutes): approximately 200%
